Reference: the supplement of paper PMC7017272
± gives the standard deviation of the averaged measurements.

Legend:
Conditions in all cases: treatment time: 3 days
UT-SCC-73 [1] = assay: drug sensitivity score (DSS); higher = more sensitive; extreme values may be limits of the assay
How it was run: (§1)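 HPV-negative HNSCC cell lines were seeded at 500 cells/well in 384-well plates on plastic, on Matrigel- or Myogel-coated wells (500 µg/mL), or embedded in Matrigel or Myogel plus rat collagen I. Compounds were given at five 10-fold concentrations for 3 days, and viability was read by CellTiter-Glo 2.0 luminescence. Signals were normalised to vehicle (0.1% DMSO) and cell-killing control wells. Percent-inhibition dose–response curves were fitted in the FIMM pipeline to derive IC50, maximal inhibition and drug sensitivity score.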

UT-SCC-40 [2] = assay: as above
How it was run: as §1

UT-SCC-8 = assay: as above
How it was run: as §1

UT-SCC-28 = assay: as above
How it was run: as §1

UT-SCC-81 [3] = assay: as above
How it was run: as §1

UT-SCC-44 [4] = assay: as above
How it was run: as §1

UT-SCC-24B [5] = assay: as above
How it was run: as §1

UT-SCC-73 [6] = assay: relative IC50 (midpoint of the fitted curve; maximal inhibition may be below 50%); higher = less potent
How it was run: as §1

UT-SCC-42B = assay: as above
How it was run: as §1

UT-SCC-42A = assay: as above
How it was run: as §1

UT-SCC-40 [7] = assay: as above
How it was run: as §1

UT-SCC-106A = assay: as above
How it was run: as §1

UT-SCC-81 [8] = assay: as above
How it was run: as §1

UT-SCC-44 [9] = assay: as above
How it was run: as §1

UT-SCC-14 = assay: as above
How it was run: as §1

UT-SCC-24B [10] = assay: as above
How it was run: as §1

UT-SCC-24A = assay: maximal % inhibition of viability relative to DMSO; higher = stronger effect
Experimental: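 HNSCC cell lines (500 cells/well, 384-well) were cultured on plastic, on top of (2D) or embedded (3D) in Matrigel or human leiomyoma matrix Myogel (500 ug/mL; Myogel 3D mixed with rat collagen I). Cells were treated for 3 days with 5 ten-fold concentrations of each drug, and viability was read by CellTiter-Glo. Viability was normalised to DMSO (0% inhibition) and 100 uM benzethonium chloride (100% inhibition) controls and fitted with the FIMM DSRT pipeline to give IC50 (nM), maximal % inhibition and the drug sensitivity score (DSS). Suffixes _1/_2/_3 on drug names are replicates.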

[11] = culture condition: embedded in Matrigel
[12] = culture condition: embedded in Myogel + collagen I
[13] = culture condition: on top of Matrigel
[14] = culture condition: on top of Myogel
[15] = culture condition: plastic 2D (no matrix)

relative IC50 (UT-SCC-73 [6]; [11]): 2.4 nM
relative IC50 (UT-SCC-73 [6]; [12]): 3.82 nM
relative IC50 (UT-SCC-73 [6]; [13]): 3.23 nM
relative IC50 (UT-SCC-73 [6]; [14]): 9.54 nM
relative IC50 (UT-SCC-73 [6]; [15]): 5.35 nM
relative IC50 (UT-SCC-42B; [11]): 1.54 nM
relative IC50 (UT-SCC-42B; [14]): 80.8 nM
relative IC50 (UT-SCC-42A; [11]): 4.26 nM
relative IC50 (UT-SCC-42A; [12]): 11.3 nM
relative IC50 (UT-SCC-42A; [13]): 4.67 nM
relative IC50 (UT-SCC-42A; [15]): 9.23 nM
relative IC50 (UT-SCC-40 [7]; [11]): 2.68 nM
relative IC50 (UT-SCC-40 [7]; [12]): 6.76 nM
relative IC50 (UT-SCC-40 [7]; [13]): 4.29 nM
relative IC50 (UT-SCC-40 [7]; [14]): 13.8 nM
relative IC50 (UT-SCC-40 [7]; [15]): 10.6 nM
relative IC50 (UT-SCC-106A; [11]): 2.16 nM
relative IC50 (UT-SCC-106A; [13]): 2.3 nM
relative IC50 (UT-SCC-106A; [15]): 2.3 nM
relative IC50 (UT-SCC-81 [8]; [13]): 5.89 nM
relative IC50 (UT-SCC-81 [8]; [15]): 151 nM
relative IC50 (UT-SCC-44 [9]; [11]): 3.37 nM
relative IC50 (UT-SCC-44 [9]; [12]): 108 nM
relative IC50 (UT-SCC-44 [9]; [15]): 7.56 nM
relative IC50 (UT-SCC-14; [12]): 9.53 nM
relative IC50 (UT-SCC-14; [13]): 14.3 nM
relative IC50 (UT-SCC-14; [14]): 16.1 nM
relative IC50 (UT-SCC-24B [10]; [12]): 62.7 nM
relative IC50 (UT-SCC-24B [10]; [13]): 39.5 nM
Compound: Cn1c(=O)c(F)c(Nc2ccc(I)cc2F)c2c(=O)n(C[C@@H](O)CO)cnc21 [TAK-733]
drug sensitivity score (UT-SCC-73 [1]; [11]): 24.7 ± 0.5 DSS
drug sensitivity score (UT-SCC-73 [1]; [12]): 13.8 ± 6 DSS
drug sensitivity score (UT-SCC-73 [1]; [13]): 21.4 ± 1.6 DSS
drug sensitivity score (UT-SCC-73 [1]; [14]): 12.9 ± 0.38 DSS
drug sensitivity score (UT-SCC-73 [1]; [15]): 17.5 ± 1.3 DSS
drug sensitivity score (UT-SCC-40 [2]; [11]): 24 ± 0.56 DSS
drug sensitivity score (UT-SCC-40 [2]; [12]): 16.2 ± 2.5 DSS
drug sensitivity score (UT-SCC-40 [2]; [13]): 20.2 ± 1.5 DSS
drug sensitivity score (UT-SCC-40 [2]; [14]): 10 ± 0.56 DSS
drug sensitivity score (UT-SCC-40 [2]; [15]): 11.6 ± 1.3 DSS
drug sensitivity score (UT-SCC-8; [11]): 13.6 ± 2.6 DSS
drug sensitivity score (UT-SCC-8; [12]): 2.3 ± 2.6 DSS
drug sensitivity score (UT-SCC-8; [13]): 8.03 ± 4.5 DSS
drug sensitivity score (UT-SCC-8; [14]): 7.53 ± 4.9 DSS
drug sensitivity score (UT-SCC-8; [15]): 7.07 ± 2.1 DSS
drug sensitivity score (UT-SCC-28; [11]): 9.3 ± 2.7 DSS
drug sensitivity score (UT-SCC-28; [12]): 0.8 ± 1.4 DSS
drug sensitivity score (UT-SCC-28; [13]): 10.8 ± 2.5 DSS
drug sensitivity score (UT-SCC-28; [15]): 5 ± 1.4 DSS
drug sensitivity score (UT-SCC-81 [3]; [11]): 28.8 ± 3.6 DSS
drug sensitivity score (UT-SCC-81 [3]; [12]): 3.93 ± 2.7 DSS
drug sensitivity score (UT-SCC-81 [3]; [13]): 19.6 ± 1.2 DSS
drug sensitivity score (UT-SCC-81 [3]; [14]): 2.63 ± 2.3 DSS
drug sensitivity score (UT-SCC-81 [3]; [15]): 2.9 ± 0.17 DSS
drug sensitivity score (UT-SCC-44 [4]; [11]): 21.6 ± 1.5 DSS
drug sensitivity score (UT-SCC-44 [4]; [12]): 3.67 ± 1.4 DSS
drug sensitivity score (UT-SCC-44 [4]; [13]): 14.8 ± 1.2 DSS
drug sensitivity score (UT-SCC-44 [4]; [14]): 5.27 ± 2.8 DSS
drug sensitivity score (UT-SCC-44 [4]; [15]): 12.9 ± 0.4 DSS
drug sensitivity score (UT-SCC-24B [5]; [11]): 9.43 ± 5.1 DSS
drug sensitivity score (UT-SCC-24B [5]; [12]): 8.77 ± 1.4 DSS
drug sensitivity score (UT-SCC-24B [5]; [13]): 10 ± 1.8 DSS
drug sensitivity score (UT-SCC-24B [5]; [14]): 5.97 ± 2.3 DSS
drug sensitivity score (UT-SCC-24B [5]; [15]): 13 ± 6 DSS
maximal % inhibition of viability (UT-SCC-24A; [11]): 81.5 ± 1.9%
maximal % inhibition of viability (UT-SCC-24A; [12]): 53.9 ± 2.1%
maximal % inhibition of viability (UT-SCC-24A; [13]): 77.7 ± 1.1%
maximal % inhibition of viability (UT-SCC-24A; [14]): 45.9 ± 4%
maximal % inhibition of viability (UT-SCC-24A; [15]): 70.6 ± 1.3%
